These results are taken from PubChem BioAssay (NCI).

“And” between values parts separate entries of the source, which are not always exact repeats. Identical values can stand only once.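 Grown in 96-well plates, cells were treated for 48 hours with each compound at five concentrations. Insufficient inhibition: endpoint recorded as highest concentration tested. At the GI50, growth is halved. At the TGI there is no net growth.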

This experiment relates to MDA-MB-468 breast. The experiment in a line: inhibition of tumour cell growth, NCI panel, 48 h.
Take `CCOC(=O)Oc1c(OC)cc(C(=O)c2ccc(OC)c(O)c2OC)cc1OC`: the GI50 was 2.65 µM and the TGI was over 100 µM.

In the case of `Cc1ccc2cnc(N)c(C#Cc3cc(C(=O)Nc4ccc(CN5CCN(C)CC5)c(C(F)(F)F)c4)cnc3C)c2c1`, the GI50 is 0.932 µM and the TGI came out at 2.08 µM.

In the case of `C=C1CCC2C3(C)COC(C)(C)OC3CCC2(C)C1C/C=C1/C(=O)OCC1OC(C)=O` (configuration not stated), the GI50 was 1.44 µM and the TGI was determined as 3.06 µM.

As to `CCN1C(=O)N(CC)C2C1NN=c1s/c(=C\c3ccc(Cl)cc3Cl)c(=O)n12` (configuration not stated), the GI50 was 0.0417 µM and the TGI stood at 19.4 µM.

Regarding `O=C(Nc1cccc(Cl)c1)Nn1cnnc1`, the GI50 was over 50 µM and the TGI was over 50 µM.

In the case of `O=C1OCC2=C1C(c1cccc(F)c1)c1cc3c(cc1N2CCO)OCO3` (configuration not stated), the GI50 is 1.12 µM and the TGI was over 50 µM.

Consider `Cn1ncc(-c2ccc3c(=O)[nH]nc(CN)c3c2)c1-c1c(F)c(Cl)cc(OC2CC2)c1C#N`, for which the GI50 was 11.7 µM and 10.2 µM; the TGI is 24.8 µM and 22.5 µM.

With `CCOc1ccccc1CCN=C1NC(=O)/C(=C/c2ccc3ncccc3c2)S1`, the GI50 is 1.16 µM and the TGI is over 16.9 µM.

On to `O=C(NCC1CC1)c1ccc(-c2cccc(C(=O)NC3CC3)c2)cc1`, for which the GI50 was over 25 µM and the TGI is over 25 µM.

As for `CC1=C([Se]CC(OC(=O)CC[Se]c2ccccc2)C(=O)NC(C)(C)C)C(=O)c2ccccc2C1=O` (configuration not stated), the GI50 is 0.509 µM and the TGI came to 2.06 µM.

As to `CCc1c2c(nc3ccc(OCc4ccc(B(O)O)cc4)cc13)-c1cc3c(c(=O)n1C2)COC(=O)[C@]3(O)CC`, the GI50 is under 0.01 µM and the TGI came out at 0.0355 µM.

With `Nc1ncn([C@@H]2S[C@H](CO)[C@@H](O)[C@@H]2F)c(=O)n1`, the GI50 is over 100 µM and the TGI was over 100 µM.

Turning to `CC1=C2C(=C[C@@](C)(CO)[C@@H]2OC(=O)N(C)CCN(C)C(=O)OC(C)(C)C)C(=O)[C@](C)(O)C12CC2`, the GI50 was 1.1 µM and the TGI turned out to be 3.8 µM.

Regarding `COc1cccc(-c2nc3cc(NC(=O)c4ccc(Cl)c(C#N)c4)ccc3o2)c1`, the GI50 is 1.6 µM and the TGI worked out at 3.44 µM.

As for `O=C1/C(=C/c2ccc([N+](=O)[O-])cc2)CN(C(=O)CCN2CCC(=NO)CC2)C/C1=C\c1ccc([N+](=O)[O-])cc1`, the GI50 was 1.06 µM and the TGI came to 3.61 µM.

Regarding `COc1ccc2c(c1)C(=O)/C(=C/c1cccc(OCC(=O)c3ccccc3)c1)CC2`, the GI50 is 2.68 µM and the TGI came to 74.2 µM.

Turning to `N#C[Se]Cc1cc(-c2ccccc2)n(-c2ccc(S(N)(=O)=O)cc2)n1`, the GI50 was 1.59 µM and the TGI worked out at 3.47 µM.

As to `CN1CCC(CNc2cc(C3(C(=O)Nc4cc(C(=O)Nc5ccc(Cl)c(C(F)(F)F)c5)ccc4F)CC3)ncn2)CC1`, the GI50 was 1.83 µM and the TGI was found to be 4.41 µM.

Turning to `COc1cc(/C=C/C(=O)/C=C/c2cc(OC)c3c(c2)OCO3)cc2c1OCO2`, the GI50 was 3.46 µM and the TGI is 28.3 µM.

With `CCCN1C(=O)NC(=O)C(CC)(N2C(=O)c3c(F)c(F)c(F)c(F)c3C2=O)C1=O` (configuration not stated), the GI50 is 1.54 µM and the TGI stood at 3.93 µM.

In the case of `c1ccc(-c2nc(-c3ccccn3)nc(-c3ccccn3)n2)nc1`, the GI50 is 30.4 µM and the TGI was found to be 99.1 µM.

In the case of `CCSC1=NC2C(N(CC)C(=O)N2CC)N1/N=C/C=C/c1ccccc1[N+](=O)[O-]` (configuration not stated), the GI50 is 0.1 µM.

Consider `CC(CO)Nc1cc(-c2[nH]c3cccnc3c2-c2ccc(F)cc2)ccn1` (configuration not stated), for which the GI50 is 6.74 µM and the TGI was over 25 µM.

On to `CCCCN(CCCC)Cc1cc(Nc2ccnc3cc(Cl)ccc23)ccc1O`, for which the GI50 is 4.94 µM and the TGI is over 100 µM.

In the case of `Nc1nc2ccc(-c3nc4ccc5[nH]ncc5c4c4c3CCC4)cc2s1`, the GI50 is 0.182 µM and the TGI amounted to 4.36 µM.

On to `Cc1c2cnccc2c(C)c2c1c1cc(C#N)ccc1n2C`, for which the GI50 was 0.228 µM and the TGI came out at 0.741 µM.

Turning to `O=C(O)c1nc(NCc2nc3cc(Cl)ccc3o2)n[nH]1`, the GI50 is over 100 µM and the TGI is over 100 µM.

Take `O=S(=O)(Nc1ccc(Br)cc1)c1ccc(-c2cnc(C3CC3)o2)cc1`: the GI50 was 1.13 µM and the TGI worked out at 7.28 µM.

Consider `COc1cc(C)ccc1C(=O)c1ccc(C)cc1OC`, for which the GI50 was 1.39 µM and the TGI is over 100 µM.
